Literature values, collected in paper PMC9516332 (Frontiers in Oncology, 2022).
Like-named read-outs stand apart in the source and are kept apart here.

Experiments:
Details in all cases: cited from earlier work
[1] = target: panel of 255 wild-type kinases (Homo sapiens, UniProt Q9UQM7)
[2] = target: panel of 255 wild-type kinases (Homo sapiens, UniProt Q16512)
[3] = target: panel of 255 wild-type kinases (Homo sapiens, UniProt P17252)
[4] = target: panel of 255 wild-type kinases (Homo sapiens, UniProt Q13177)
[5] = target: panel of 255 wild-type kinases (Homo sapiens, UniProt Q13131)
[6] = target: panel of 255 wild-type kinases (Homo sapiens, UniProt Q9Y463)
[7] = target: panel of 255 wild-type kinases (Homo sapiens, UniProt Q15349)
[8] = target: panel of 255 wild-type kinases (Homo sapiens, UniProt Q9HCP0)
[9] = target: panel of 255 wild-type kinases (Homo sapiens, UniProt P31749)
[10] = target: T1, panel of 255 wild-type kinases (Homo sapiens, UniProt Q9NZJ5)
T1 sequence (Q9NZJ5 30-1116): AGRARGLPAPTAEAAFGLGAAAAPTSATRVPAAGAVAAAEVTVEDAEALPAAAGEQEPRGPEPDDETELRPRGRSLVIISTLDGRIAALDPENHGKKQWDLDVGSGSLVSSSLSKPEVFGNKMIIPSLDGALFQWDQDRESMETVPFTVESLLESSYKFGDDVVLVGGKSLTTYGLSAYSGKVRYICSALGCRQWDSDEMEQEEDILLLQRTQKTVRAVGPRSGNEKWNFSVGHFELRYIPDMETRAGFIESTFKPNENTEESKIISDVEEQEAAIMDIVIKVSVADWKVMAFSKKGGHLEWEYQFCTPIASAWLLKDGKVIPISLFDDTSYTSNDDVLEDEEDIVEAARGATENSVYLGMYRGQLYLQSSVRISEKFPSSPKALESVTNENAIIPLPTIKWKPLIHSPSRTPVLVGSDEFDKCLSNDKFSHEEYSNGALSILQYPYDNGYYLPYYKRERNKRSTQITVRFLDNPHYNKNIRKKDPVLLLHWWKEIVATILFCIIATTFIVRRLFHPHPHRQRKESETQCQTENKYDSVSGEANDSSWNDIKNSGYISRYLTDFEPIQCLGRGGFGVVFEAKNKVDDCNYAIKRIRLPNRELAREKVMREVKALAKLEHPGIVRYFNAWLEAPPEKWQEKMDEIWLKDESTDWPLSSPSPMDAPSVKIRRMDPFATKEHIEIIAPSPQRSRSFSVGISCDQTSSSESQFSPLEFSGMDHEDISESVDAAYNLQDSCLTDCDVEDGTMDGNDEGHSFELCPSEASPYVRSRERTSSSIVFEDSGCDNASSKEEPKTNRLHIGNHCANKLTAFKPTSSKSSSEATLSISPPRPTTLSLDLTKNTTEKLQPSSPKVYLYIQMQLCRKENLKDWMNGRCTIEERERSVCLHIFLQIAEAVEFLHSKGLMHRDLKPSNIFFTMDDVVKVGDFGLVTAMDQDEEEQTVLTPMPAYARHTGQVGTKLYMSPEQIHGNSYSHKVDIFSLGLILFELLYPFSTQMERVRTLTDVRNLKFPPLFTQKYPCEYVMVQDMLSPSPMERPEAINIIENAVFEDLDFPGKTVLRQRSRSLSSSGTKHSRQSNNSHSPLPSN

[11] = target: panel of 255 wild-type kinases (Homo sapiens, UniProt Q13554)
[12] = CaMK2α kinase assay, 1 µmol/L single concentration, ref DOI: 10.1158/1535-7163.MCT-18-0877
[13] = kinase PKN1, 1 µmol/L single concentration, ref DOI: 10.1158/1535-7163.MCT-18-0877
[14] = kinase PKCα, 1 µmol/L single concentration, ref DOI: 10.1158/1535-7163.MCT-18-0877
[15] = PAK2, 1 µmol/L single concentration, ref DOI: 10.1158/1535-7163.MCT-18-0877
[16] = AMPKα1/β1/γ1 kinase assay, 1 µmol/L single concentration, ref DOI: 10.1158/1535-7163.MCT-18-0877
[17] = kinase DYRK1B, 1 µmol/L single concentration, ref DOI: 10.1158/1535-7163.MCT-18-0877
[18] = kinase RSK3, 1 µmol/L single concentration, ref DOI: 10.1158/1535-7163.MCT-18-0877
[19] = kinase CK1γ1, 1 µmol/L single concentration, ref DOI: 10.1158/1535-7163.MCT-18-0877
[20] = AKT1 kinase assay, 1 µmol/L single concentration, ref DOI: 10.1158/1535-7163.MCT-18-0877
[21] = kinase PEK, 1 µmol/L single concentration, ref DOI: 10.1158/1535-7163.MCT-18-0877
[22] = CaMK2β kinase assay, 1 µmol/L single concentration, ref DOI: 10.1158/1535-7163.MCT-18-0877
[23] = CaMK2α kinase assay, 1 µmol/L single concentration, ref DOI: 10.1371/journal.pone.0092146
[24] = kinase PKN1, 1 µmol/L single concentration, ref DOI: 10.1371/journal.pone.0092146
[25] = kinase DYRK1B, 1 µmol/L single concentration, ref DOI: 10.1371/journal.pone.0092146

| SMILES | %-inhibition CaMK2α [1, 12] [%] | %-inhibition at 1 µmol/L, PKN1 [2, 13] [%] | %-inhibition at 1 µmol/L, PKCα [3, 14] [%] | %-inhibition, PAK2 [4, 15] [%] | %-inhibition AMPKα1/β1/γ1 [5, 16] [%] | %-inhibition at 1 µmol/L, DYRK1B [6, 17] [%] | %-inhibition at 1 µmol/L, RSK3 [7, 18] [%] | %-inhibition at 1 µmol/L, CK1γ1 [8, 19] [%] | %-inhibition AKT1 [9, 20] [%] | %-inhibition at 1 µmol/L, PEK [10, 21] [%] | %-inhibition CaMK2β [11, 22] [%] | also measured |
| --- | --- | --- | --- | --- | --- | --- | --- | --- | --- | --- | --- | --- |
| CC#CC(=O)N1CCC[C@H]1c1nc(-c2ccc(C(=O)Nc3ccccn3)cc2)c2c(N)nccn12 [acalabrutinib] | -3.43 | 11 | -17 | -5 | -5 | -19 | 1.13 | 0.334 | -6 | 8 | -1.09 | – |
| CCc1cc2c(cc1N1CCC(N3CCOCC3)CC1)C(C)(C)c1[nH]c3cc(C#N)ccc3c1C2=O [alectinib] | 0.405 | 13 | 1.48 | -29 | 5 | 2 | – | -0.412 | 3.25 | 9 | 2.14 | – |
| COc1cc(N2CCC(N3CCN(C)CC3)CC2)ccc1Nc1ncc(Cl)c(Nc2ccccc2P(C)(C)=O)n1 [brigatinib] | – | – | – | – | – | – | – | – | – | – | – | %-inhibition CaMK2α [1]: 86%; %-inhibition at 1 µmol/L, PKN1 [2]: 77%; %-inhibition at 1 µmol/L, PKCα [3]: 15%; %-inhibition, PAK2 [4]: 16%; %-inhibition AMPKα1/β1/γ1 [5]: 80%; %-inhibition at 1 µmol/L, DYRK1B [6]: 41%; %-inhibition at 1 µmol/L, RSK3 [7]: 100%; %-inhibition at 1 µmol/L, CK1γ1 [8]: 1.13%; %-inhibition AKT1 [9]: 1.5%; %-inhibition at 1 µmol/L, PEK [10]: 18%; %-inhibition CaMK2β [11]: 64% |
| Cc1cc(Nc2ncc(Cl)c(Nc3ccccc3S(=O)(=O)C(C)C)n2)c(OC(C)C)cc1C1CCNCC1 [ceritinib] | 15 | 25 | -9 | -4.22 | 21 | 11 | 90 | 19 | -8 | 9.5 | 23 | – |
| O=C(c1ccc(F)c(F)c1Nc1ccc(I)cc1F)N1CC(O)([C@@H]2CCCCN2)C1 [cobimetinib] | 7 | 19 | 1.54 | -17 | -0.873 | 2 | 8 | 2.67 | -7 | 5 | -0.487 | – |
| C[C@@H](Oc1cc(-c2cnn(C3CCNCC3)c2)cnc1N)c1c(Cl)ccc(F)c1Cl [crizotinib] | – | – | – | – | – | – | – | – | – | – | – | %-inhibition CaMK2α [1, 23]: -2.77%; %-inhibition at 1 µmol/L, PKN1 [2, 24]: 23%; %-inhibition at 1 µmol/L, PKCα ([3]; kinase PKCα, 1 µmol/L single concentration, ref DOI: 10.1371/journal.pone.0092146): -8.47%; %-inhibition, PAK2 ([4]; PAK2, 1 µmol/L single concentration, ref DOI: 10.1371/journal.pone.0092146): 5%; %-inhibition AMPKα1/β1/γ1 ([5]; AMPKα1/β1/γ1 kinase assay, 1 µmol/L single concentration, ref DOI: 10.1371/journal.pone.0092146): 16%; %-inhibition at 1 µmol/L, DYRK1B [6, 25]: -3%; %-inhibition at 1 µmol/L, RSK3 ([7]; kinase RSK3, 1 µmol/L single concentration, ref DOI: 10.1371/journal.pone.0092146): 3.34%; %-inhibition at 1 µmol/L, CK1γ1 ([8]; kinase CK1γ1, 1 µmol/L single concentration, ref DOI: 10.1371/journal.pone.0092146): -3.52%; %-inhibition AKT1 ([9]; AKT1 kinase assay, 1 µmol/L single concentration, ref DOI: 10.1371/journal.pone.0092146): -7%; %-inhibition at 1 µmol/L, PEK ([10]; kinase PEK, 1 µmol/L single concentration, ref DOI: 10.1371/journal.pone.0092146): 1.1% |
| CC(C)(C)c1nc(-c2cccc(NS(=O)(=O)c3c(F)cccc3F)c2F)c(-c2ccnc(N)n2)s1 [dabrafenib] | – | – | – | – | – | – | – | – | – | – | – | %-inhibition CaMK2α [1, 23]: -2.14%; %-inhibition at 1 µmol/L, PKN1 [2, 24]: -2.84%; %-inhibition at 1 µmol/L, DYRK1B [6, 25]: 29%; %-inhibition CaMK2β ([11]; CaMK2β kinase assay, 1 µmol/L single concentration, ref DOI: 10.1371/journal.pone.0092146): -0.277% |
| C=CC(=O)N1CCC[C@@H](n2nc(-c3ccc(Oc4ccccc4)cc3)c3c(N)ncnc32)C1 [ibrutinib] | -1.35 | 9 | 0.745 | -6 | – | 2 | 9 | 3.68 | -9 | 7.47 | -2.56 | – |
| CO[C@@H]1[C@H](N(C)C(=O)c2ccccc2)C[C@H]2O[C@]1(C)n1c3ccccc3c3c4c(c5c6ccccc6n2c5c31)C(=O)NC4 [midostaurin] | – | – | 92 | – | 86 | – | 98 | -0.49 | – | 11 | – | – |
